Measurements taken from patent US9714951B2, “Pharmaceutical compositions containing peptides derived from human BPLP protein” (INSTITUT PASTEUR, priority 2004, dated 2017).
pIC50: −log10 of the molar value. “Also recorded” adds a separate entry of the source. Ends that are not written are not given here.

Legend:
formalin-induced pain [1] = conditions: iv; cited from earlier work
[2] = biological target: T1, human NEP (human ecto-endopeptidase activity, LNCaP cell line) (Homo sapiens, UniProt P08473); experiment: breakdown of substrate (substance P, McaBK2) by LNCaP human cell membranes; format: biochemical; conditions: for effect on substance P hydrolysis by cell surface ectopeptidases: bestatin 25 μM, captopril 10 μM
T1 construct: in the experimental model of static incubation of human LNCaP cell membranes; endogenous in cells; host or cells: LNCaP (human prostate adenocarcinoma) membrane preparation, NEP induced by DHT

[3] = biological target: T2, rat NEP ecto-endopeptidase activity (renal tissue) (Rattus norvegicus, UniProt P07861); experiment: breakdown of substance P by rat renal NEP ecto-endopeptidase activity; format: biochemical
T2 construct: rat NEP ecto-endopeptidase activity (renal tissue); from tissue; host or cells: rat kidney (renal tissue)
T2 sequence (P07861 1-750): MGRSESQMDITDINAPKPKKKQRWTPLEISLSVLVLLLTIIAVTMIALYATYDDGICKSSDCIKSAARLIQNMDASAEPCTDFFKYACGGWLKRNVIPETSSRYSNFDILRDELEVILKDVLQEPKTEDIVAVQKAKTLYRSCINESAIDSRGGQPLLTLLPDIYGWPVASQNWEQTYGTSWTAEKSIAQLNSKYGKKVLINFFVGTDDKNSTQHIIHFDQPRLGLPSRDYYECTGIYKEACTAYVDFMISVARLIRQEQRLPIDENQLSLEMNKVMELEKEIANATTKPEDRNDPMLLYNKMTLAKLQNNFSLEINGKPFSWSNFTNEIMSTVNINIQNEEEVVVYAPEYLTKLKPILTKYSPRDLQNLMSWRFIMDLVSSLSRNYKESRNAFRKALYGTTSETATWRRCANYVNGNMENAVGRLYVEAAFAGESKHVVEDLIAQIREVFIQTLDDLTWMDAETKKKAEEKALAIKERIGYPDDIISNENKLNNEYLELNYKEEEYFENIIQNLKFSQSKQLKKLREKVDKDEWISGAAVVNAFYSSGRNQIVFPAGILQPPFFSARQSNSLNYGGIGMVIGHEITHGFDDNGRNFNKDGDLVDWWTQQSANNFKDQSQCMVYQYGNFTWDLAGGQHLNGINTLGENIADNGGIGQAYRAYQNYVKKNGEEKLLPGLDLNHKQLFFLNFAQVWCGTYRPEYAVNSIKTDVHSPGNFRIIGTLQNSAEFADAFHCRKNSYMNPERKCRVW
Protocol: Briefly, for membrane preparations, the cells were homogenised at 4° C. in 10 volumes (vol./wt.) of 50 mM Tris/HCl buffered at pH 7.1. A first centrifugation at 1000×g and 5° C. for 5 min allows to remove the cellular debris and the nuclei in the pellet. A second centrifugation at 100 000×g and 5° C. for 30 min concentrates the membrane fraction in the pellet, which will be superficially washed three times in cold Tris/HCl buffer, resuspended in fresh buffer, aliquoted and stored at −80° C. while waiting to be used as enzyme source.
Hydrolysis of substrates was measured by monitoring the metabolism rate in conditions of initial velocity measurement in the presence and absence of specific inhibitors. These were added to the preincubation medium. The standard reaction mixture consisted of cell membranes in a final volume of 200 μl Tris-HCl 50 mM pH 6.5-7.2. The substrate was added after preincubation for 10 min and the digestion carried out for 20 min at 25° C. in a constantly shaken water bath. The reaction was terminated by cooling to 4° C. and adding HCl (0.3N final concentration). The reaction tubes were then centrifuged (4700×g for 15 min at 4° C.) and the remaining intact substrate and its metabolites measured.
The intact tritiated substrate was eluted with 75-100% methanol-0.1% TFA (4 ml). • RP-HPLC coupled to a spectrophotometer was used to analyse the hydrolysis of Met-enkephalin, (C-18 LUNA column, AIT). […] Their identities and relative quantities (peak height) were checked by monitoring the column outflow at 264 nm (L3000, Merck). • The disappearance of the initial Met-enkephalin substrate was also quantified by radioimmunoassay (RIA). […] The radioactivity of each fraction was determined by liquid scintillation spectrometry.

formalin-induced pain [4] = experiment: formalin test, behavioral rat model of acute pain; format: in vivo; conditions: for time spent in paw licking, early phase: first 20 min after formalin, vehicle 144±17 s
Excerpt: […]. […] […].

[5] = test system: human cell surface endopeptidases; experiment: metabolism of YQRFSR by human cell membranes containing NEP (RP-HPLC); format: in vitro ADME; conditions: 175 μM
Excerpt: FIG. 8 is a RP-HPLC chromatographic analysis of the YQRFSR peptide (SEQ ID NO: 4).
The inventors used the tritiated 3H-YQRFSR peptide (SEQ ID NO: 4) to establish the pharmacokinetic and pharmacodynamic parameters, of this human functional peptidomimetic of rat sialorphin in vivo in adult male rat (biodistribution-bioavailability-clearance) as well as to define its metabolism mechanism and turnover in vivo and in vitro, (FIG. 8).

[6] = biological target: T3, soluble purified renal NEP (Oryctolagus cuniculus, UniProt P08049); conditions: DGNPA substrate, read-out: IC50 of inhibition of NEP activity; cited from earlier work
T3 construct: host or cells: kidney (purified, soluble)
T3 sequence (P08049 1-750): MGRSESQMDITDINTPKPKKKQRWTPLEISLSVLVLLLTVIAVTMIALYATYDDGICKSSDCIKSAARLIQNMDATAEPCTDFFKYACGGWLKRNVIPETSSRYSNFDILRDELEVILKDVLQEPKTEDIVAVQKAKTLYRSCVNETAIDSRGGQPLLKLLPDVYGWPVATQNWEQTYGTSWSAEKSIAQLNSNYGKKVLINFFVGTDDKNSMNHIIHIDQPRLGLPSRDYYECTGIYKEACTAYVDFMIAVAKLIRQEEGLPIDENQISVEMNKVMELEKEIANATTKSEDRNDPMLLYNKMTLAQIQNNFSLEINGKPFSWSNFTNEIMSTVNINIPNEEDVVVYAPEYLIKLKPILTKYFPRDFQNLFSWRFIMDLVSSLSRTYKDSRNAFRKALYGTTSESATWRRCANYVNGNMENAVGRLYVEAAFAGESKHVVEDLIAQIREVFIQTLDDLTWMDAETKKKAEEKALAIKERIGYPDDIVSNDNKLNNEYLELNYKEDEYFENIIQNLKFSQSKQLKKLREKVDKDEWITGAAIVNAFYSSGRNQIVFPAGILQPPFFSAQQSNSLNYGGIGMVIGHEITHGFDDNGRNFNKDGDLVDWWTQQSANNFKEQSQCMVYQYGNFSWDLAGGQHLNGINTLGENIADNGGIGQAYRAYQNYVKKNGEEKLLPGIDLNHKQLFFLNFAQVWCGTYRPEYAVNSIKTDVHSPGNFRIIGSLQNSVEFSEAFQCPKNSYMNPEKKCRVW

spinal and renal NEP = biological target: T4, spinal and renal NEP (Rattus norvegicus, UniProt P07861); conditions: membrane-bound NEP; read-out: IC50 of inhibition of the breakdown of substance P; cited from earlier work
T4 construct: host or cells: spinal cord and kidney tissue
T4 sequence (P07861 1-750): T2 sequence (P07861 1-750)

[7] = biological target: T5, soluble recombinant human DPP IV (Homo sapiens, UniProt P27487); experiment: endoproteolysis of substance P by soluble recombinant hDPPIV; format: biochemical; conditions: 25 or 50 μM peptide
T5 construct: (without the N-terminal cytosol and transmembrane segment)
T5 sequence (P27487 29-766 limits assumed): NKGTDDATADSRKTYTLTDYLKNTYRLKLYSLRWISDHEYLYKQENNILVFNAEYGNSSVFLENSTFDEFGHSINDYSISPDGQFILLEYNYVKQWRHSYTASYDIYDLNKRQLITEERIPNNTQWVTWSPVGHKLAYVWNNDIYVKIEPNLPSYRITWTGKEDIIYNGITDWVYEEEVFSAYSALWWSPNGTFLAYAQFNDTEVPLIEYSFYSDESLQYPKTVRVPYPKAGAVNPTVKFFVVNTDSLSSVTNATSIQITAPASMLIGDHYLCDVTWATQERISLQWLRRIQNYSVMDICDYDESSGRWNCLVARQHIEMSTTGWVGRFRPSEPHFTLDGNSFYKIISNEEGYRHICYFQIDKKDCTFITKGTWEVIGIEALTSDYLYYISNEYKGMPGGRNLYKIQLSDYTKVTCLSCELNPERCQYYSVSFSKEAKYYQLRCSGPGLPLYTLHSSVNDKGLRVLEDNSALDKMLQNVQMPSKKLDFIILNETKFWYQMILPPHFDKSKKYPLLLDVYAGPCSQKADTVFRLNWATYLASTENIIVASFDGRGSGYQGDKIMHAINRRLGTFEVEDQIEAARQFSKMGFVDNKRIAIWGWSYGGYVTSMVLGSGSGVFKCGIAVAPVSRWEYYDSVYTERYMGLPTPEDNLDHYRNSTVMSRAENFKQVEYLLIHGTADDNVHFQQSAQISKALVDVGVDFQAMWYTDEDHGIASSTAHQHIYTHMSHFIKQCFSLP

T1 sequence (P08473 whole entry): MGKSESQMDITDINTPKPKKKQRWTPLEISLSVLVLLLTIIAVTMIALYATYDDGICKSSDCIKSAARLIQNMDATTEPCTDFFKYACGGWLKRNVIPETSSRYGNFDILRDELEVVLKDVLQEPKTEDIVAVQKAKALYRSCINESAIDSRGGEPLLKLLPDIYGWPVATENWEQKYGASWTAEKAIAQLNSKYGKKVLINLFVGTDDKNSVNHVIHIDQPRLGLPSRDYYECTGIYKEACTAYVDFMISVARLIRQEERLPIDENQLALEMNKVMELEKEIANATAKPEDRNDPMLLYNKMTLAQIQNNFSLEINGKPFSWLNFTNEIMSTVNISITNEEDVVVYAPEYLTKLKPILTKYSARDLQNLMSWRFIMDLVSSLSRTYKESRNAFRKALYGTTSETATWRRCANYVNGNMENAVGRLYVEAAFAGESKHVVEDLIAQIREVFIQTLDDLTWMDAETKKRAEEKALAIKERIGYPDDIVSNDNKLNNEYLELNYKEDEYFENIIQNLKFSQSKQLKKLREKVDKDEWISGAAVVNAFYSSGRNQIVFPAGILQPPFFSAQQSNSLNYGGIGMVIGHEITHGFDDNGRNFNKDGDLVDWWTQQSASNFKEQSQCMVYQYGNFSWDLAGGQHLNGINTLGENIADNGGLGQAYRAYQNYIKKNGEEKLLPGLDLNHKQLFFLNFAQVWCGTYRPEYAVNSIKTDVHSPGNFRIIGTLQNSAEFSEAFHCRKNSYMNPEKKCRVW

## CSCC[C@H](N)CSSCC(Cc1ccccc1)C(=O)N[C@@H](Cc1ccccc1)C(=O)OCc1ccccc1 (stereo partly shown) [RB101]
formalin-induced pain [1]
  effective doses in formalin-induced pain model: 2.5 to 5 mg/kg

## N=C(N)NCCC[C@H](NC(=O)[C@H](CO)NC(=O)[C@H](Cc1ccccc1)NC(=O)[C@H](CCCNC(=N)N)NC(=O)[C@H](CCC(N)=O)NC(=O)[C@@H](N)Cc1ccc(O)cc1)C(=O)O [YQRFSR]
[2]
  inhibitory potency towards ectoendopeptidase from human cells: 5000 to 50000 nM
[2]; peptide 175 μM
  inhibition of substance P endoproteolysis by human cell membranes: 70%
[3]
  pIC50: 4.42
  inhibitory potency towards ectoendopeptidase from rat tissues: 5000 to 75000 nM
formalin-induced pain [4]; 0.5 mg/kg systemic
  time spent in paw licking, early phase: 97 ± 14 s
formalin-induced pain [4]; 1 mg/kg systemic
  time spent in paw licking, early phase: 84 ± 13 s
formalin-induced pain [4]; 1 mg/kg, 40 to 60 min after formalin, vehicle 63±13 s
  time spent in paw licking, late phase: 9 ± 3 s
formalin-induced pain [4]; with nalaxone
  analgesia in the presence of an opioid receptor antagonist: totally reversed
[5]; in vitro
  metabolism by human cell membranes containing NEP: not metabolized
[5]; with human cell membranes containing NEP, 94% in absence of membranes
  recovered as intact peptide: 93%

## CC(C)C[C@H](NC(=O)[C@@H](O)[C@H](N)Cc1ccccc1)C(=O)O [bestatin]
[2]
  effect on substance P hydrolysis by cell surface ectopeptidases: did not inhibit

## C[C@H](CS)C(=O)N1CCC[C@H]1C(=O)O [captopril]
[2]
  effect on substance P hydrolysis by cell surface ectopeptidases: did not inhibit

## O=C(O)CNC(=O)C(CS)Cc1ccccc1 (stereo not shown) [thiorphan]
[2]; read-out: maximum inhibitory potency on LNCaP membrane activity
  inhibition at 0.5 µM: 62%

## QHNP (listed as Rattus rattus)
[3]
  inhibitory potency towards ectoendopeptidase from rat tissues: ≧50 μM

## QHNPR
[2]; human LNCaP vs rodent NEP
  inhibitory potency against membrane-anchored human NEP (LNCaP) relative to rodent NEP (rat, rabbit), fold lower: about 10 fold
[2]
  inhibitory potency towards ectoendopeptidase from human cells: 4000 to 40000 nM
[3]
  inhibitory potency towards ectoendopeptidase from rat tissues: 400 to 4000 nM
formalin-induced pain [1]
  effective doses in formalin-induced pain model: 0.1 to 0.2 mg/kg
[6]
  pIC50: 6.22
Spinal and renal NEP
  pIC50: 6.00 to 6.40

## QRFSR [QRFSR]
[7]
  effect on breakdown of SP by recombinant hDPPIV: no effect; also recorded: not prevented

## QRGPR (listed as Homo sapiens)
[2]; 20-90 μM
  effect on substance P endoproteolysis induced by LNCaP human cell membranes: no effect
[2]
  inhibitory potency towards ectoendopeptidase from human cells: ≧90 μM

## QRGPRGP (listed as Homo sapiens)
[2]
  inhibitory potency towards ectoendopeptidase from human cells: ≧90 μM
